Consider 39 compounds from patent publication US7109370B2, “Substituted phenylketoenols” (Bayer Aktiengesellschaft, priority 1997, dated 2006).

Holding throughout (type): in vivo
For data set [1], the system named is larvae of the mustard beetle (Phaedon cochleariae). Put plainly: Phaedon larvae test (dipped cabbage leaves). Particulars: active compound concentration 0.1%, after 7 days. The procedure: Phaedon Larvae Test [table] To produce a suitable preparation of active compound, 1 part by weight of active compound is mixed with the stated amount of solvent and the stated amount of emulsifier, and the concentrate is diluted with water to the desired concentration. Cabbage leaves (Brassica oleracea) are treated by being dipped into the preparation of active compound of the desired concentration and are populated with larvae of the mustard beetle (Phaedon cochleariae) while the leaves are still moist.

Data set [2] deals with greenhouse red spider mite Tetranychus urticae. Put plainly: Tetranychus test (OP-resistant/dip treatment). Particulars: after 14 days, infested bean plants dipped. The procedure: Tetranychus Test (OP-Resistant/Dip Treatment)
(§1) To produce a suitable preparation of active compound, 1 part by weight of active compound is mixed with the stated amount of solvent and the stated amount of emulsifier, and the concentrate is diluted with water to the desired concentration.
Bean plants (Phaseolus vulgaris) which are heavily infested by all stages of the greenhouse red spider mite Tetranychus urticae are dipped into a preparation of active compound of the desired concentration.
After the desired period of time, the kill in % is determined. 100% means that all spider mites have been killed; 0% means that none of the spider mites have been killed.

For data set [3], the system named is peach aphids (Myzus persicae). Put plainly: Myzus test (dipped cabbage leaves). To be noted: active compound concentration 0.1%; after 6 days; infested cabbage leaves dipped. The procedure:
as §1
Cabbage leaves (Brassica oleracea) which are heavily infested by peach aphids (Myzus persicae) are treated by being dipped into the preparation of active compound of the desired concentration.
After the desired period of time, the kill in % is determined. 100% means that all aphids have been killed; 0% means that none of the aphids have been killed.

For data set [4], the system named is green rice leaf hoppers (Nephotettix cincticeps). Put plainly: Nephotettix test (dipped rice seedlings). To be noted: active compound concentration 0.1%, after 6 days. The procedure: as §1
Rice seedlings (Oryzae sativa) are treated by being dipped into the preparation of active compound of the desired concentration and are populated with green rice leaf hoppers (Nephotettix cincticeps) while the seedlings are still moist.
After the desired period of time, the kill in % is determined. 100% means that all leaf hoppers have been killed; […] means that none of the leaf hoppers have been killed.

In the next data set the test system is Aphis fabae. Put plainly: Critical concentration test/root-systemic action, Aphis fabae. Particulars: soil, read-out: root-systemic effect (mortality). The procedure: Critical Concentration Test/Root-Systemic Action
as §1
The preparation of active compound is intimately mixed with soil. The concentration of the active compound in the preparation is of practically no importance here, only the amount by weight of active compound per unit volume of soil, which is given in ppm (=mg/l), being decisive. The treated soil is transferred into pots and these are planted with pregerminated broad beans. The active compound can in this way be taken up from the soil by the roots of the plants and be transported into the leaves.
(§2) After a further 6 days, evaluation is carried out by counting or estimating the dead animals. The root-systemic action of the active compound is deduced from the mortality figures. It is 100% if all the test animals have been killed and 0% if just as many test insects are still alive as in the case of the untreated control.

In data set [5] the test system is caterpillars of the owlet moth (Spodoptera frugiperda). Put plainly: Spodoptera frugiperda test (dipped cabbage leaves). To be noted: active compound concentration 0.1%, after 7 days. The procedure: Spodoptera frugiperda Test
as §1
Cabbage leaves (Brassica oleracea) are treated by being dipped into the preparation of active compound of the desired concentration and are populated with caterpillars of the owlet moth (Spodoptera frugiperda) while the leaves are still moist.
After the desired period of time, the kill in % is determined. 100% means that all caterpillars have been killed; 0% means that none of the caterpillars have been killed.

Another data set has as its system Myzus persicae. Put plainly: Critical concentration test/root-systemic action, Myzus persicae. Particulars: 20 ppm active compound in soil; peppers; populated after 7 days, evaluated after a further 6 days. The procedure:
Critical Concentration Test/Root-systemic Action
as §1
The preparation of active compound is intimately mixed with soil. The concentration of the active compound in the preparation is of practically no importance here, only the amount by weight of active compound per unit volume of soil, which is given in ppm (=mg/l), being decisive. The treated soil is transferred into pots and these are planted with peppers at the cotyledon stage. The active compound can in this way be taken up from the soil by the roots of the plants and be transported into the leaves.
as §2

The mark [6] stands for this setting: active compound concentration 0.02%.
Setting [7] is: active compound concentration 0.1%.

As for `Cc1cc(Cl)cc(Cl)c1C1=C(O)C2(CCOC(C)C2)NC1=O` (single isomer, unassigned) [I-a-8], the kill in % in data set [1] worked out at 100%.
On to `CC1CC2(CCO1)NC(=O)C(c1ccc(Br)cc1Cl)=C2OC(=O)C(C)C` (single isomer, unassigned) [I-b-15], for which the “effect (kill in %)” value in data set [2] (setting [6]) is on record as 100%.
Consider `Cc1cc(C)c(C2=C(O)C3(CCOC(C)C3)NC2=O)c(C)c1C` (single isomer, unassigned) [I-a-10], for which the kill in % in data set [3] is listed as 100%.
As to `Cc1cc(C)c(C2=C(OC(=O)C(C)C)C3(CCOC(C)C3)NC2=O)c(C)c1` (centres unmarked) [I-b-1], the kill in % in data set [4] was 100%. In the data set with Aphis fabae, the mortality at 20 ppm is 100%.
For the compound `CC(=O)OC1=C(c2c(C)cc(C)cc2C)C(=O)NC12CCOC(C)C2` (single isomer, unassigned) [I-b-5], in data set [4], the kill in % is 100%.
`CCOC(=O)OC1=C(c2ccc(CC)cc2Cl)C(=O)NC12CCOC(C)C2` (centres unmarked) [I-c-13]: the kill in % in data set [1] and in data set [5] was 100% throughout. Besides, in data set [2] (setting [6]), the “effect (kill in %)” value is listed as 100%.
Compound `Cc1cc(C)c(C2=C(OC(=O)C(C)C)C3(CCOC(C)C3)NC2=O)c(C)c1C` (single isomer, unassigned) [I-b-11] returned a kill in % in data set [4] of 100%.
On to `Cc1ccc(C2=C(OC(=O)C(C)C)C3(CCOC(C)C3)NC2=O)c(C)c1` (single isomer, unassigned) [I-b-7], for which the “effect (kill in %)” value in data set [2] (setting [7]) stood at 100%. Further, the kill in % in data set [4] is recorded as 100%.
`Cc1cc(C)c(C2=C(O)C3(CCOC(C)C3)NC2=O)c(C)c1` (centres unmarked) [I-a-1]: the mortality at 20 ppm with Aphis fabae turned out to be 100%.
Turning to `CC(=O)OC1=C(c2c(C)cc(C)cc2C)C(=O)NC12CCOC(C)C2` (single isomer, unassigned) [I-b-2], the “effect (kill in %)” value in data set [2] (setting [7]) is 100%. This compound also returned a kill in % in data set [4] of 100%.
`Cc1cc(C#N)cc(C)c1C1=C(O)C2(CCOC(C)C2)NC1=O` (single isomer, unassigned) [I-a-12] gave a kill in % in data set [3] of 100%.
In the case of `CCOC(=O)OC1=C(c2ccc(C)cc2C)C(=O)NC12CCOC(C)C2` (centres unmarked) [I-c-3], the kill in % in data set [1], in data set [5] and in data set [4] was 100% throughout. For the same compound, the “effect (kill in %)” value in data set [2] (setting [7]) turned out to be 100%.
For `CCOC(=O)OC1=C(c2c(C)cc(Br)cc2C)C(=O)NC12CCOC(C)C2` (centres unmarked) [I-c-11], the kill in % in data set [4] and in data set [3] was 100% throughout.
With `CCOC(=O)OC1=C(c2c(C)cc(C)c(C)c2C)C(=O)NC12CCOC(C)C2` (centres unmarked) [I-c-5], the kill in % in data set [4] turned out to be 100%.
For `CCOC(=O)OC1=C(c2cc(C)c(C)cc2C)C(=O)NC12CCOC(C)C2` (centres unmarked) [I-c-7], the kill in % in data set [4] is recorded as 100%.
In data set [3], `CC1CC2(CCO1)NC(=O)C(c1ccc(Br)cc1Cl)=C2O` (single isomer, unassigned) [I-a-15] registered a kill in % of 100%.
Take `Cc1cc(Cl)c(C2=C(O)C3(CCOC(C)C3)NC2=O)c(Cl)c1` (single isomer, unassigned) [I-a-9]: the “effect (kill in %)” value in data set [2] (setting [7]) was 100%. In data set [3], this compound had a kill in % of 100%.
For `CCc1ccc(C2=C(OC(=O)c3cccs3)C3(CCOC(C)C3)NC2=O)c(Cl)c1` (single isomer, unassigned) [I-b-23], the kill in % in data set [1] and in data set [4] was 100% in each case.
In the case of `CCc1ccc(C2=C(O)C3(CCOC(C)C3)NC2=O)c(Cl)c1` (single isomer, unassigned) [I-a-22], the kill in % in data set [4] is 100%.
Regarding `Cc1cc(Cl)cc(C)c1C1=C(OC(=O)C(C)C)C2(CCOC(C)C2)NC1=O` (centres unmarked) [I-b-25], the “root-systemic effect (mortality)” value in the data set with Myzus persicae was 100%.
As to `Cc1ccc(C2=C(OC(=O)C(C)C)C3(CCOC(C)C3)NC2=O)c(C)c1` (single isomer, unassigned) [I-b-4], the kill in % in data set [1] and in data set [4] was 100% each time. In addition, the “effect (kill in %)” value in data set [2] (setting [7]) is 100%.
On to `Cc1ccc(C2=C(OC(=O)C(C)C)C3(CCOC(C)C3)NC2=O)c(Cl)c1` (single isomer, unassigned) [I-b-8], for which the kill in % in data set [1] and in data set [4] was 100% throughout. Moreover, in data set [2] (setting [7]), the “effect (kill in %)” value is 100%.
Consider `CCOC(=O)OC1=C(c2ccc(Br)cc2Cl)C(=O)NC12CCOC(C)C2` (centres unmarked) [I-c-8], for which the kill in % in data set [3] was 100%.
As for `CCc1ccc(C2=C(OC(=O)C(C)C)C3(CCOC(C)C3)NC2=O)c(Cl)c1` (single isomer, unassigned) [I-b-22], the kill in % in data set [1] and in data set [4] was 100% in each case. In data set [2] (setting [6]), the “effect (kill in %)” value is 100%.
`CCOC(=O)OC1=C(c2ccc(Cl)cc2Cl)C(=O)NC12CCOC(C)C2` (centres unmarked) [I-c-12] had a kill in % in data set [3] of 100%.
The same measure, in the same setting: to `Cc1cc(Cl)cc(Br)c1C1=C(O)C2(CCOC(C)C2)NC1=O` (single isomer, unassigned) [I-a-19] belongs 100%.
The compound `CC(=O)OC1=C(c2ccc(C)cc2C)C(=O)NC12CCOC(C)C2` (single isomer, unassigned) [I-b-6] registered a kill in % in data set [4] of 100%.
In the case of `Cc1ccc(C2=C(O)C3(CCOC(C)C3)NC2=O)c(C)c1` (single isomer, unassigned) [I-a-4], in data set [2] (setting [7]), the “effect (kill in %)” value amounted to 100%.
Turning to `Cc1cc(Cl)ccc1C1=C(OC(=O)C(C)C)C2(CCOC(C)C2)NC1=O` (single isomer, unassigned) [I-b-17], the “effect (kill in %)” value in data set [2] (setting [6]) is 100%. Moreover, the kill in % in data set [4] and in data set [3] was 100% in each case.
As to `CCOC(=O)OC1=C(c2cc(C)ccc2C)C(=O)NC12CCOC(C)C2` (centres unmarked) [I-c-15], in data set [5], the kill in % was 100%.
In the case of `Cc1ccc(C2=C(O)C3(CCOC(C)C3)NC2=O)c(Cl)c1` (single isomer, unassigned) [I-a-7], the kill in % in data set [1] and in data set [4] was 100% each time. Besides, the “effect (kill in %)” value in data set [2] (setting [7]) came out at 100%.
Turning to `CC1CC2(CCO1)NC(=O)C(c1ccc(Br)cc1Cl)=C2OC(=O)CC(C)(C)C` (single isomer, unassigned) [I-b-16], the “effect (kill in %)” value in data set [2] (setting [6]) is 100%.
Turning to `Cc1ccc(C)c(C2=C(O)C3(CCOC(C)C3)NC2=O)c1` (single isomer, unassigned) [I-a-20], the kill in % in data set [5] and in data set [3] was 100% each time.
For `CCOC(=O)OC1=C(c2c(C)cc(C)cc2C)C(=O)NC12CCOC(C)C2` (centres unmarked) [I-c-1], in data set [2] (setting [7]), the “effect (kill in %)” value amounted to 100%. The kill in % in data set [4] turned out to be 100%. Also, in the data set with Aphis fabae, the mortality at 20 ppm was found to be 100%.
Turning to `Cc1cc(Br)cc(C)c1C1=C(O)C2(CCOC(C)C2)NC1=O` (single isomer, unassigned) [I-a-18], the kill in % in data set [3] is listed as 100%.
The compound `CCc1cc(Br)c(C2=C(O)C3(CCOC(C)C3)NC2=O)c(Br)c1` (single isomer, unassigned) [I-a-21] displayed a kill in % in data set [3] of 100%.
Regarding `Cc1cc(C)c(C2=C(OC(=O)C(C)C)C3(CCOC(C)C3)NC2=O)c(C)c1` (single isomer, unassigned) [I-b-3], the “effect (kill in %)” value in data set [2] (setting [7]) was determined as 100%.
Regarding `Cc1cc(Cl)cc(C)c1C1=C(O)C2(CCOC(C)C2)NC1=O` (single isomer, unassigned) [I-a-16], in the data set with Myzus persicae, the “root-systemic effect (mortality)” value is given as 100%. Besides, the kill in % in data set [3] worked out at 100%.
Consider `CCOC(=O)OC1=C(c2ccc(C)cc2C)C(=O)NC12CCOC(C)C2` (centres unmarked) [I-c-4], for which, in data set [2] (setting [7]), the “effect (kill in %)” value was 100%. The compound also came in with a kill in % in data set [4] of 100%.
